Test results reported in US20240287133A1, “PEPTIDE HAVING ACTIVITY OF PREVENTING HAIR LOSS OR PROMOTING HAIR GROWTH, AND USE THEREOF” (CAREGEN CO., LTD., priority 2021, published 2024).

Key:
Assay type in all cases: cell-based, human
HHFDPC = test: MTT proliferation of dermal papilla cells; conditions: peptide 500 nM, 5 μM, 50 μM, 72 hours, vs untreated control, FIG. 1
Procedure: While culturing human hair follicle dermal dermal papilla cells (HHFDPC), the absorbance was measured after treatment with the peptide of the present invention to confirm whether there was an effect of promoting the proliferation of the HHFDPC dermal papilla cells.
Specifically, HHFDPC (Sciencell, USA) was seeded at 4×10^3 cells/well in a 96-well culture plate, cultured in MSC complete medium (mesenchymal stem cell complete media, Sciencell, USA) for 24 hours, and then the medium was replaced with serum free MSC complete medium and cultured for another 24 hours. Then, the HHFDPC was treated with the peptide of SEQ ID NO: 1 prepared in the Preparation Example at concentrations of 500 nM, 5 µM, and 50 μM, respectively, and cultured at 37° C. for 72 hours. As a positive control, minoxidil was treated at a concentration of 1 μM, and as a negative control, HHFDPC without any treatment was used. Then, 10 ? of 5 mg/mL MTT solution was added and cultured in a 37° C. CO2 incubator for 4 hours to stain the cells. After removing the medium, the cells were treated with 100 μl of DMSO and shaken for 10 minutes, and the number of HHFDPC cells was confirmed by measuring absorbance at a wavelength of 540 nm using a spectrophotometer.

Keratin 19 = test: RT-PCR of Keratin 19 in HHORSC; conditions: peptide 500 nM, 5 μM, 50 μM, 72 hours, vs control without treatment, FIG. 6
Procedure: (§1) Specifically, HHORSC (human hair outer root sheath cell, Sciencell, USA) was seeded in a 6-well culture plate at 4×10^5 cells/well and then cultured in MSC complete medium (mesenchymal stem cell complete media) for 24 hours. Next, the medium was replaced with serum free MSC complete medium and cultured again for 24 hours. Then, the HHORSC was treated with the peptide of Preparation Example consisting of amino acid sequence of SEQ ID NO: 1 at concentrations of 500 nM, 5 μM, and 50 μM, respectively, and cultured at 37° C. for 72 hours. As a positive control, EGF was treated at a concentration of 50 nM, and as a negative control, HHORSC without any treatment was used. After washing with PBS, RNA was isolated by treating with 300 ? of easy blue (intron, Korea). Then, CDNA was synthesized using a cDNA synthesis kit (enzynomics, Korea) by quantification using nano drop, and PCR was performed using primer for Ha3-II, Keratin 14, and Keratin 19 (the base sequences of primer are listed in Table 3 below) and PCR premix (enzynomics, Korea). Electrophoresis was performed on a 1.5% agarose gel, and the mRNAs of Ha3-II, Keratin 14, and Keratin 19 were detected using a band analysis system (Bio-Rad gel image system).

DKK-1 protein = test: Western blotting of DKK-1 protein in DHT-treated HHFDPC; conditions: HHFDPC with DHT 100 nM, peptide 500 nM, 5 μM, 50 μM, 24 hours, vs negative control (DHT only), FIG. 5
Procedure: DKK-1 protein (dickkopf-related protein 1) is a hair loss-related protein known to be highly expressed in individuals with hair loss, especially male pattern hair loss, and its expression is known to be promoted by hormones such as DHT (Dihydrotestosterone). Accordingly, the expression of DKK-1 protein was induced by treating HHFDPC cells with DHT together with the peptide according to the Preparation Example of the present invention, and then the expression level of DKK-1 was measured through Western blotting to determine whether there was an effect of suppressing the expression of DKK-1 protein.
Specifically, HHFDPC as in [Experiment Example 1-1] was seeded in a 6-well culture plate at 4×10^5 cells/well and then cultured in MSC complete medium (mesenchymal stem cell complete media) for 24 hours. Next, the medium was replaced with serum free MSC complete medium and cultured again for 24 hours. In addition, the HHFDPC was treated with the peptide of SEQ ID NO: 1 prepared in Preparation Example at concentrations of 500 nM, 5 μM, and 50 μM, respectively, and at this time, DHT, an expression inducer of DKK-1 protein, was simultaneously treated at a concentration of 100 nM and then cultured at 37° C. for 24 hours. […] After washing again with 0.1% PBS-T (0.1% Tween-20 in PBS) three times for 15 minutes each, DKK-1 protein was detected by treatment with ECL solution (GE Healthcare, USA).

p-AKT = test: Western blotting of phosphorylated AKT in HHFDPC; conditions: peptide 500 nM, 5 μM, 50 μM, 24 hours, vs control not treated with the peptide, FIG. 2
Procedure: (§2) First, phosphorylated forms of AKT and ERK, which act as signaling molecules related to the proliferation of HHFDPC, were confirmed through Western blotting. Specifically, HHFDPC as in [Experiment Example 1-1] above was seeded at 4×10^5 cells/well in a 6-well culture plate, cultured in MSC complete medium (mesenchymal stem cell complete media) for 24 hours, and then the medium was replaced with serum free MSC complete medium and cultured for another 24 hours. Then, the HHFDPC was treated with the peptide of SEQ ID NO: 1 prepared in the Preparation Example at concentrations of 500 nM, 5 μM, and 50 µM, respectively, and cultured at 37° C. for 24 hours. As a positive control, minoxidil was treated at a concentration of 1 μM, and as a negative control, HHFDPC without any treatment was used. Then, Western blotting was performed to detect phosphorylated AKT and phosphorylated ERK. After washing with PBS, the cells were treated with 100 ? of lysis buffer to destroy cells, thereby obtaining cell lysate. After electrophoresis using a 10% SDS-PAGE gel, it was transferred to a PVDF membrane and blocked using 5% skim milk at room temperature for 30 minutes. […] After washing again with 0.1% PBS-T (0.1% Tween-20 in PBS) three times for 15 minutes each, p-AKT and p-ERK were detected by treatment with ECL solution (GE Healthcare, USA).

cyclin D1 = test: RT-PCR of cyclin D1 in HHFDPC; conditions: peptide 500 nM, 5 μM, 50 μM, 24 hours, vs control without treatment, FIG. 4
Procedure: (§3) Furthermore, in order to determine whether the β-catenin moves to the nucleus and is activated to affect proliferation and differentiation, whether the expression of LEF-1, c-Myc and cyclin D1 (cyclin D1), which act as downstream factors, increases with β-catenin activation was confirmed through RT-PCR. Specifically, in the same manner as the previous Western blotting experiment, HHFDPC cells were cultured, treated with the peptides of the Preparation Example of the present invention at concentrations of 500 nM, 5 μM, and 50 μM, respectively, and cultured at 37° C. for 24 hours. After washing the cells with PBS, RNA was isolated by treating them with 300 […] of easy blue (intron, Korea). Then, CDNA was synthesized using a cDNA synthesis kit (enzynomics, Korea) by quantifying it with nano drop, and PCR was performed using primers for LEF-1, c-Myc and cyclin D1 (base sequences of the primers are listed in Table 2 below) and PCR premix (enzynomics, Korea). Electrophoresis was performed on a 1.5% agarose gel, and then the mRNA of LEF-1 and cyclin D1 was detected using a band analysis system (Bio-Rad gel image system).

p-ERK = test: Western blotting of phosphorylated ERK in HHFDPC; conditions: peptide 500 nM, 5 μM, 50 μM, 24 hours, vs control not treated with the peptide, FIG. 2
Procedure: as §2

Keratin 14 = test: RT-PCR of Keratin 14 in HHORSC; conditions: peptide 500 nM, 5 μM, 50 μM, 72 hours, vs control without treatment, FIG. 6
Procedure: as §1

Ha3-II = test: RT-PCR of Ha3-II in HHORSC; conditions: peptide 500 nM, 5 μM, 50 μM, 72 hours, vs control without treatment, FIG. 6
Procedure: as §1

β-catenin = test: Western blotting of β-catenin moved into the nucleus of HHFDPC; conditions: HHFDPC nuclear protein, peptide 500 nM, 5 μM, 50 μM, 24 hours, vs control, FIG. 3
Procedure: In addition, in addition to p-AKT and p-ERK, in order to confirm the activation of β-catenin, which is known to affect cell proliferation and differentiation, whether β-catenin moved into the nucleus was confirmed through Western blotting. Specifically, the HHFDPC as in [Experiment Example 1-1] was seeded in a 6-well culture plate at an amount of 4×10^5 cells/well, cultured in MSC complete medium (mesenchymal stem cell complete media) for 24 hours. Next, the medium was replaced with serum free MSC complete medium and cultured again for 24 hours. Then, the HHFDPC was treated with the peptide of SEQ ID NO: 1 prepared in the Preparation Example at concentrations of 500 nM, […], and 50 μM, respectively, and cultured at 37° C. for 24 hours. As a positive control, minoxidil was treated at a concentration of 1 μM, and as a negative control, HHFDPC without any treatment was used. After washing with PBS, proteins in the nucleus were isolated using a nuclear protein extraction kit (Thermo scientific, USA). After electrophoresis using a 10% SDS-PAGE gel, it was transferred to a PVDF membrane and blocked using 5% skim milk at room temperature for 30 minutes. […] After washing again with 0.1% PBS-T (0.1% Tween-20 in PBS) three times for 15 minutes each, β-catenin was detected by treatment with ECL solution (GE Healthcare, USA).

c-Myc = test: RT-PCR of c-Myc in HHFDPC; conditions: peptide 500 nM, 5 μM, 50 μM, 24 hours, vs control without treatment, FIG. 4
Procedure: as §3

LEF-1 = test: RT-PCR of LEF-1 in HHFDPC; conditions: peptide 500 nM, 5 μM, 50 μM, 24 hours, vs control without treatment, FIG. 4
Procedure: as §3

MSX2 = test: RT-PCR of MSX2 in HHGMC; conditions: peptide 500 nM, 5 μM, 50 μM, 72 hours, vs untreated control, FIG. 7
Procedure: Specifically, HHGMC (human hair germinal matrix cell, Sciencell, USA) was seeded in a 6-well culture plate at 4×10^5 cells/well and then cultured in MSC complete medium (mesenchymal stem cell complete media) for 24 hours. Next, the medium was replaced with serum free MSC complete medium and cultured again for 24 hours. Then, the HHGMC was treated with the peptide of SEQ ID NO: 1 prepared in the Preparation Example at concentrations of 500 nM, 5 μM, and 50 µM, respectively, and cultured at 37° C. for 72 hours. As a positive control, EGF was treated at a concentration of 50 nM, and as a negative control, HHGMC without any treatment was used. After washing with PBS, RNA was isolated by treating with 300 ? of easy blue (intron, Korea). Next, cDNA was synthesized using a cDNA synthesis kit (enzynomics, Korea) by quantification using nano drop, and PCR was performed using primers for MSX2 (base sequences of primers are listed in Table 4 below) and PCR premix (enzynomics, Korea). Electrophoresis was performed on a 1.5% agarose gel, and MSX2 mRNA was detected using a band analysis system (Bio-Rad gel image system).

CPRHENPVC [the peptide of the present invention]
proliferation of HHFDPC (absorbance at 540 nm, MTT) (HHFDPC): the proliferation of HHFDPC was promoted | Keratin 19 mRNA (Keratin 19): the amount of mRNA increased further | amount of DKK-1 protein (DKK-1 protein): the amount of DKK-1 protein was found to be reduced | p-AKT phosphorylation (p-AKT): phosphorylation was found to be increased | cyclin D1 mRNA (cyclin D1): the amount of mRNA increased further | p-ERK phosphorylation (p-ERK): phosphorylation was found to be increased | Keratin 14 mRNA (Keratin 14): the amount of mRNA increased further | Ha3-II mRNA (Ha3-II): the amount of mRNA increased further | β-catenin moved into the nucleus (β-catenin): migration due to activation of β-catenin increased | c-Myc mRNA (c-Myc): the amount of mRNA increased further | LEF-1 mRNA (LEF-1): the amount of mRNA increased further | MSX2 mRNA (MSX2): the amount of mRNA increased further
